Data set [1] can be described thus: Equilibrium solubility in water, potentiometric (pH-metric) CheqSol method. In kind it is physicochemical. The note with it: for solubility: thermodynamic from solid, read-out: equilibrium concentration (solubility, S). On the procedure:
Solubility (S) measurements were conducted in water using the CheqSol system at five temperatures: 15 °C, 25 °C, 35 °C, 45 °C, and 55 °C. However, due to the hydrolytic instability of Tegoprazan at elevated temperatures and the pH-dependent nature of the CheqSol assay, reliable measurements could only be obtained at 15 °C and 25 °C. Based on the equilibrium solubility values at these two temperatures, the enthalpy of solution (ΔHsol) was estimated for each polymorph using van’t Hoff plots of ln(S) versus 1/T.
Solubility measurements were performed using the potentiometric (pH-metric) method with the CheqSol system (T3, Sirius Analytical Instruments Ltd., Portsmouth, UK). Unlike pKa determinations, solubility assays require relatively high sample concentrations to ensure saturation across a broad pH range (typically, pH 2 to 12). In this method, the solution is intentionally brought into a supersaturated state to establish “crossing points,” from which the intrinsic (equilibrium) solubility is calculated based on the concentration of the neutral species predominating at specific pH levels. The high initial concentration of the sample promotes supersaturation, leading to precipitation at pH values corresponding to the compound’s pKa. This onset of precipitation reflects the kinetic solubility, which can be characterized by various physicochemical parameters, including the pKa value, saturated pH, sample concentration, temperature, and crystallinity. This study aimed to investigate the temperature dependence of solubility for Polymorphs A and B. Measurements were conducted at five temperatures: 15 °C, 25 °C, 35 °C, 45 °C, and 55 °C.

Data set [2] is described as follows: Stability of polymorphs under accelerated conditions, followed by DSC and XRD. In kind it is physicochemical. Particulars: 40 ± 2 °C, relative humidity 75 ± 5 %, 8-week period; changes seen in the eighth week. On the procedure: As a case in point, the stability of the two Tegoprazan polymorphs was evaluated under accelerated conditions (temperature: 40 ± 2 °C, relative humidity: 75 ± 5 HR%) over an 8-week period, with observations for any significant changes conducted using DSC (Differential Scanning Calorimetry) and XRD (X-ray diffraction). […] Therefore, it is essential to elucidate the details of this phenomenon. For quantitative phase analysis and similar studies, knowledge of the crystal structure is crucial. However, the crystal structures of Polymorphs A and B remain unresolved. In response to this need, we explored a practical approach to crystal structure analysis by utilizing readily available powder samples, laboratory-scale XRD instruments, and cost-efficient Rietveld refinement software specifically EXPO2014 (expo version 1.22.11). The known method of SDPD (Structure Determination from Powder Diffraction) was considered as one potential solution to address these challenges. While X-ray diffraction often utilizes synchrotron radiation or other advanced accelerator-based facilities, the crystal structures of Tegoprazan Polymorphs A and B were analyzed using laboratory-based X-ray diffraction (XRD) equipment and powdered samples. This approach was chosen for the following reasons: […]

Values after ≈ are worked out from the molar mass of the structure shown. Like-named read-outs stand apart in the source and are kept apart here.

The values below come from PMC11990383, “Structure Determination of Tegoprazan((S)-4-((5,7-difluorochroman-4-yl)oxy)-N,N,2-trimethyl-1H-benzo[d]imidazole-6-formamide) Polymorphs A and B by Laboratory X-Ray Powder Diffraction” (Molecules, 2025).

`Cc1nc2c(OC3CCOc4cc(F)cc(F)c43)cc(C(=O)N(C)C)cc2[nH]1` [Polymorph A, (S)-4-((5,7-difluorochroman-4-yl)oxy)-N,N,2-trimethyl-1H-benzo[d]imidazole-6-formamide]: the solubility in data set [1] (15 °C, 15 °C) was found to be 1250 µM (≈ 483 µg/mL); in data set [1] (25 °C, 25 °C), 1440 µM (≈ 557 µg/mL). In addition, the “solid-state stability (changes by DSC and XRD)” value in data set [2] is on record as “No changes”.
Take `Cc1nc2c(OC3CCOc4cc(F)cc(F)c43)cc(C(=O)N(C)C)cc2[nH]1` [Polymorph B, (S)-4-((5,7-difluorochroman-4-yl)oxy)-N,N,2-trimethyl-1H-benzo[d]imidazole-6-formamide]: the “equilibrium concentration (solubility, S)” value turned out to be 1476 µM in data set [1] (15 °C) and 2118 µM in data set [1] (25 °C). The “solid-state stability (changes by DSC and XRD)” value in data set [2] is recorded as “phase transition to Polymorph A”.
